In patent US7582649B2, “Hydroxy alkyl substituted 1,3,8-triazaspiro[4.5]decan-4-one derivatives useful for the treatment of ORL-1 receptor mediated disorders” (Janssen Pharmaceutica, NV, priority 2002, dated 2009):
pIC50: −log10 of the molar value. Where two headings read alike, the source gives them in different places.

Assays:
mu opioid receptor = mu opioid receptor (Homo sapiens, UniProt P35372); assay: Filtration binding assay: mu opioid receptor
kappa opioid receptor = kappa opioid receptor (Homo sapiens, UniProt P41145); assay: Filtration binding assay: kappa opioid receptor
kappa opioid receptor, sequence (P41145 whole entry): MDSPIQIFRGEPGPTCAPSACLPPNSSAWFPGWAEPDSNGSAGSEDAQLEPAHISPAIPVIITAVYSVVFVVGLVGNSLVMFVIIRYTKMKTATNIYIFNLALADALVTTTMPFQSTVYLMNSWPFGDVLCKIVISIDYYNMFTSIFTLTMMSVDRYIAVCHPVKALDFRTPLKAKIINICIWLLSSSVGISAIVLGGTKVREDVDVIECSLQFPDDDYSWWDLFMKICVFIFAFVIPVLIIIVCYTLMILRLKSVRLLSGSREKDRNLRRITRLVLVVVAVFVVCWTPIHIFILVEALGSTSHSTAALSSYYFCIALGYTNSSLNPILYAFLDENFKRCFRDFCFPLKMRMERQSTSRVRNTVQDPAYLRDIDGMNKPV

delta opioid receptor = delta opioid receptor (Homo sapiens, UniProt P41143); assay: Filtration binding assay: delta opioid receptor
delta opioid receptor, sequence (P41143 whole entry): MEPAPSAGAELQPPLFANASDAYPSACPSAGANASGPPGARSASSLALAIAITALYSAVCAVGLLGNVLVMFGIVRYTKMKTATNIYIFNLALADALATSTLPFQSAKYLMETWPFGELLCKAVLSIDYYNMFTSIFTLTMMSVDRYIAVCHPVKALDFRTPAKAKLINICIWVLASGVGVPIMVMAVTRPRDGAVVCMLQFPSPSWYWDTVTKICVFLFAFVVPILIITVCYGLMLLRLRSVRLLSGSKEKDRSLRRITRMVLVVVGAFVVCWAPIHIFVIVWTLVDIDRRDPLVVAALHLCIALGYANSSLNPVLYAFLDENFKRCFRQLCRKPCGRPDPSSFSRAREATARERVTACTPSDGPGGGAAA

D2 receptor = D2 receptor (Homo sapiens, UniProt P14416); assay: Filtration binding assay, dopamine (Spiperone-I125); conditions: D2 receptor, Spiperone-I125; read-out: IC50
D2 receptor, sequence (P14416 whole entry): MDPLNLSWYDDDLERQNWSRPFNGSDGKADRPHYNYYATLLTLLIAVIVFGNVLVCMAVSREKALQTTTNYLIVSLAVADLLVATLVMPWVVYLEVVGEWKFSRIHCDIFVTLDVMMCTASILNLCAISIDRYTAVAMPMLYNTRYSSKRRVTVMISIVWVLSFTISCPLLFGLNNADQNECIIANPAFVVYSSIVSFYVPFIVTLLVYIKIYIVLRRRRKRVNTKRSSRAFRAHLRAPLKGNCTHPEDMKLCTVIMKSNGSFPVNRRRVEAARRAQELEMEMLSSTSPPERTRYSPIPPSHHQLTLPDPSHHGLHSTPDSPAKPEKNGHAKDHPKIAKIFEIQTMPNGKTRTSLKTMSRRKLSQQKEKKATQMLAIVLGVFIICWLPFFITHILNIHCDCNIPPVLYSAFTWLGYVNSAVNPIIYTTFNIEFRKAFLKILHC

Long-Evans Hooded rats [1] = conditions: rat, in vivo; for Total Entries (EPM), % Change / Total Entries (EPM), Mean / reduction of total number of entries into various zones of the maze: male, Long-Evans Hooded; for Total Entries (EPM), % Change / Total Entries (EPM), Mean / reduction of total number of entries into various zones of the maze / % Open Arm Entries (EPM), % Change / % Open Arm Entries (EPM), Mean / % Open Arm Time (EPM), % Change / % Open Arm Time (EPM), Mean / percent open arm entries, increase as compared to vehicle: po
Long-Evans Hooded rats [2] = conditions: male, rat, in vivo, po

mu opioid receptor, sequence (P35372 whole entry): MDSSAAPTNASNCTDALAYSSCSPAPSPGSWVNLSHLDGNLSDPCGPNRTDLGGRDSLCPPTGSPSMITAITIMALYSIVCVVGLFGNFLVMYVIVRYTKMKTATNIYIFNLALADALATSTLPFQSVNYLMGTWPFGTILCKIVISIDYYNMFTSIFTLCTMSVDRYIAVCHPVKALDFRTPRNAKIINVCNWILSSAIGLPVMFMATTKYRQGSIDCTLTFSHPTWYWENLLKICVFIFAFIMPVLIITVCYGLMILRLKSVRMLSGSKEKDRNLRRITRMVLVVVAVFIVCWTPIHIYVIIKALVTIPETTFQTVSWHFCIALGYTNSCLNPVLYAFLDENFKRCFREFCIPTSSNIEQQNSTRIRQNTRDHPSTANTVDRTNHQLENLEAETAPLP

SMILES: NC[C@H](O)CN1CN(c2ccc(F)cc2)C2(CCN([C@@H]3Cc4cccc5cccc3c45)CC2)C1=O [Compound #424, (R)-8-Acenaphthen-1-yl-3-(3-amino-2-hydroxy-(S)-propyl)-1-(4-fluoro-phenyl)-1,3,8-triaza-spiro[4.5]decan-4-one]
- pIC50 (mu opioid receptor): 6.55
- pIC50 (kappa opioid receptor): 6.22
- pIC50 (delta opioid receptor): 6.55
- pIC50 (D2 receptor): 6.56
- Total Entries (EPM), % Change (Long-Evans Hooded rats [1]; 0.3 mg/kg): −6.9%
- Total Entries (EPM), Mean (Long-Evans Hooded rats [1]; 0.3 mg/kg): 90.0
- Total Entries (EPM), % Change (Long-Evans Hooded rats [1]; 1 mg/kg): −5.3%
- Total Entries (EPM), Mean (Long-Evans Hooded rats [1]; 1 mg/kg): 91.5
- reduction of total number of entries into various zones of the maze (Long-Evans Hooded rats [1]; 1 mg/kg): 18.6%
- Total Entries (EPM), % Change (Long-Evans Hooded rats [1]; 3 mg/kg): −0.4%
- Total Entries (EPM), Mean (Long-Evans Hooded rats [1]; 3 mg/kg): 96.3
- reduction of total number of entries into various zones of the maze (Long-Evans Hooded rats [1]; 3 mg/kg): 60.3%
- Total Entries (EPM), % Change (Long-Evans Hooded rats [1]; 10 mg/kg): 6.1%
- Total Entries (EPM), Mean (Long-Evans Hooded rats [1]; 10 mg/kg): 102.6
- reduction of total number of entries into various zones of the maze (Long-Evans Hooded rats [1]; 10 mg/kg): 76.7%
- percent open arm entries (Long-Evans Hooded rats [1]): significant increases
- percent open arm time (Long-Evans Hooded rats [1]): significant increases
- percent open arm time, increase as compared to vehicle (Long-Evans Hooded rats [1]): 97.5%
- % Open Arm Entries (EPM), % Change (Long-Evans Hooded rats [1]; 0.3 mg/kg): 33.8%
- % Open Arm Entries (EPM), Mean (Long-Evans Hooded rats [1]; 0.3 mg/kg): 7.33%
- % Open Arm Time (EPM), % Change (Long-Evans Hooded rats [1]; 0.3 mg/kg): 70.1%
- % Open Arm Time (EPM), Mean (Long-Evans Hooded rats [1]; 0.3 mg/kg): 9.80%
- % Open Arm Entries (EPM), % Change (Long-Evans Hooded rats [1]; 1 mg/kg): 36.7%
- % Open Arm Entries (EPM), Mean (Long-Evans Hooded rats [1]; 1 mg/kg): 7.49%
- % Open Arm Time (EPM), % Change (Long-Evans Hooded rats [1]; 1 mg/kg): 69.4%
- % Open Arm Time (EPM), Mean (Long-Evans Hooded rats [1]; 1 mg/kg): 9.76%
- % Open Arm Entries (EPM), % Change (Long-Evans Hooded rats [1]; 3 mg/kg): 44.5%
- % Open Arm Entries (EPM), Mean (Long-Evans Hooded rats [1]; 3 mg/kg): 7.92%
- % Open Arm Time (EPM), % Change (Long-Evans Hooded rats [1]; 3 mg/kg): 75.3%
- % Open Arm Time (EPM), Mean (Long-Evans Hooded rats [1]; 3 mg/kg): 10.1%
- percent open arm entries, increase as compared to vehicle (Long-Evans Hooded rats [1]; 3 mg/kg): 205%
- % Open Arm Entries (EPM), % Change (Long-Evans Hooded rats [1]; 10 mg/kg): 36.7%
- % Open Arm Entries (EPM), Mean (Long-Evans Hooded rats [1]; 10 mg/kg): 7.49%
- % Open Arm Time (EPM), % Change (Long-Evans Hooded rats [1]; 10 mg/kg): 30.9%
- % Open Arm Time (EPM), Mean (Long-Evans Hooded rats [1]; 10 mg/kg): 7.54%
- percent open arm entries, increase as compared to vehicle (Long-Evans Hooded rats [1]; 10 mg/kg): 237%
- Horizontal Activity (SMA), % Change (Long-Evans Hooded rats [2]; 0.3 mg/kg): 5.3%
- Horizontal Activity (SMA), Mean (Long-Evans Hooded rats [2]; 0.3 mg/kg): 3033
- Vertical Movement (SMA), % Change (Long-Evans Hooded rats [2]; 0.3 mg/kg): 11.2%
- Vertical Movement (SMA), Mean (Long-Evans Hooded rats [2]; 0.3 mg/kg): 54.6
- Horizontal Activity (SMA), % Change (Long-Evans Hooded rats [2]; 1 mg/kg): −4.5%
- Horizontal Activity (SMA), Mean (Long-Evans Hooded rats [2]; 1 mg/kg): 2752
- Vertical Movement (SMA), % Change (Long-Evans Hooded rats [2]; 1 mg/kg): 2.4%
- Vertical Movement (SMA), Mean (Long-Evans Hooded rats [2]; 1 mg/kg): 50.3
- reduction in number of vertical movements (rearing behavior) (Long-Evans Hooded rats [2]; 1 mg/kg): 17.8%
- Horizontal Activity (SMA), % Change (Long-Evans Hooded rats [2]; 3 mg/kg): 14.5%
- Horizontal Activity (SMA), Mean (Long-Evans Hooded rats [2]; 3 mg/kg): 3300
- Vertical Movement (SMA), % Change (Long-Evans Hooded rats [2]; 3 mg/kg): 15.7%
- Vertical Movement (SMA), Mean (Long-Evans Hooded rats [2]; 3 mg/kg): 56.8
- reduction in horizontal activity (Long-Evans Hooded rats [2]; 3 mg/kg): 55%
- reduction in number of vertical movements (rearing behavior) (Long-Evans Hooded rats [2]; 3 mg/kg): 73.4%
- Horizontal Activity (SMA), % Change (Long-Evans Hooded rats [2]; 10 mg/kg): −10.2%
- Horizontal Activity (SMA), Mean (Long-Evans Hooded rats [2]; 10 mg/kg): 2588
- Vertical Movement (SMA), % Change (Long-Evans Hooded rats [2]; 10 mg/kg): −10.1%
- Vertical Movement (SMA), Mean (Long-Evans Hooded rats [2]; 10 mg/kg): 44.2
- reduction in horizontal activity (Long-Evans Hooded rats [2]; 10 mg/kg): 83.7%
- reduction in number of vertical movements (rearing behavior) (Long-Evans Hooded rats [2]; 10 mg/kg): 93.9%
